In US10537611B2, “Methods of treating lung cancer” (Five Prime Therapeutics, Inc., priority 2011, dated 2020):

Tests used:
NCI-H460 xenograft model = test: NCI-H460 xenograft tumor growth inhibition; assay type: in vivo, mouse; settings: Lung NCI-H460; IP 10 mg/kg BIW; non-amplified; P < 0.05
Source text: (§1) The impact of FGFR1-ECD.339-Fc on tumor growth was compared between FGFR1 gene amplified and non-amplified lung cancer xenograft models. Lung cell lines without FGFR1-amplification examined in this experiment were as follows: A549, NCI-H460, NCI-H226, NCI-H2126, NCI-H441, NCI-H358, NCI-H522 and Colo699. Non-amplified cell lines were purchased from ATTC (Manassas, Va.) and cultured according to supplier instructions. Lung cancer xenograft models using non-FGFR1 gene amplified cell lines were carried out substantially as described in Example 2.
(§2) Percentage tumor growth inhibition by FGFR1-ECD.339-Fc was determined by area-under-the-curve (AUC) analysis of xenograft growth curves treated with FGFR1-ECD.339-Fc compared to albumin control. […] The difference in FGFR1-ECD.339-Fc-mediated xenograft inhibition between FGFR1 gene amplified and non-amplified lung cancer xenograft models was statistically significant (P=0.0333).

NCI-H358 xenograft model = test: NCI-H358 xenograft tumor growth inhibition; assay type: in vivo, mouse; settings: Lung NCI-H358; IP 15 mg/kg BIW; non-amplified; P ns
Source text: as §1, §2

[1] = tested on: lung cancer cell lines with FGFR1 gene amplification; test: Tritiated thymidine incorporation, FGFR1 gene amplified lung cancer cell lines (average); assay type: cell-based, human; settings: across all FBS concentrations, vs control ECD-Fc
Procedure: To determine the impact of FGFR1-ECD.339-Fc on lung cancer cell lines in tissue culture, cells were plated in a Microtest™ 96-well tissue culture plate (Becton Dickenson, Franklin Lakes, N.J.) at a density of 5×10^3 cells/well in medium containing 10%, 1% or 0.1% FBS in the presence or absence of 15 μg/ml FGFR1-ECD.339-Fc (SEQ ID NO: 6) or an unrelated ECD-Fc fusion protein (as a negative control). Plates were incubated at 37° C. at 5% CO2 for 4 days and then assayed to determine the impact of FGFR1-ECD.339-Fc on cell number and proliferation.
To determine the impact of FGFR1-ECD.339-Fc on cell proliferation the tritiated thymidine ([3H]-TdR) incorporation assay was employed. […] After 16-h exposure, tritiated thymidine incorporation was assessed. […] Thymidine incorporation was determined as counts per minute (cpm) on a Topcount NXT (PerkinElmer) scintillation counter. Results were expressed as cpm/well.
The impact of FGFR1-ECD.339-Fc on cell proliferation as assessed by tritiated thymidine incorporation was also compared between FGFR1 gene amplified and non-amplified lung cancer cell lines (FIG. 4). An average percent reduction in cell proliferation with FGFR1-ECD.339-Fc addition was determined across all FBS concentrations examined for each FGFR1 gene amplified cell line and the panel of non-FGFR1 gene amplified cell lines indicated above. […]

[2] = tested on: FGFR1 signaling (pFGFR1, pFRS2α, pAkt) in JIMT-1 tumors; test: FGFR1 signaling in JIMT-1 breast cancer xenograft (western blotting); assay type: in vivo, mouse; settings: for Phosphorylated Akt levels / Phosphorylated FRS levels: 15 mg/kg i.p.
Procedure: Animals with established (200 mm3) human breast cancer JIMT-1 tumors were administered either a single (24 and 72 hour timepoints) or three times per week (multidose) i.p. dose(s) of FGFR1-ECD.339-Fc at 15 mg/kg. Tumor samples were collected at 24 and 72 hours post-dose for the single dose groups and 48 hours post the last dose in multi-dose group, snap-frozen in liquid nitrogen and lyzed in RIPA buffer (Sigma Aldrich, St Luis, Mo.). Tumor lysates were separated by SDS-PAGE and western blotting was performed using monoclonal antibodies FGFR1, pFGFR1, FRS2α, pFRS2α, Akt, pAkt, and βActin (Cell Signaling Technology, Inc). FGFR1-ECD.339-Fc was detected using anti-human Fc monoclonal antibody (Jackson Immuno Research).

[3] = two days later (72 hours post-dose)

FGFR1-ECD.339-Fc: human FGFR1 extracellular domain ending at amino acid 339 fused to an Fc; SEQ ID NO: 6 (mature form), SEQ ID NO: 5 with signal peptide
TGI (%) (NCI-H460 xenograft model): 35%
TGI (%) (NCI-H358 xenograft model): 0%
average reduction in CPM (tritiated thymidine incorporation) [1]: 62.75%
levels of phosphorylated FGFR1 ([2]; 15 mg/kg i.p. single dose, 24 hours post-dose): reduced
FGFR1 phosphorylation ([2]; 15 mg/kg i.p. single dose, 72 hours post-dose): completely abolished
Phosphorylated Akt levels ([2]; 24 hours post-dose): reduced
Phosphorylated FRS levels ([2]; 24 hours post-dose): reduced
Phosphorylated Akt levels [2, 3]: further reduced
Phosphorylated FRS levels [2, 3]: further reduced
